Test results as given in PMC13086964, “USP7 deubiquitinase stabilizes FAN1 to support DNA crosslink repair and suppress CAG repeat expansion” (Nature Communications, 2026).

Tests used:
[1] = system: RPE-1 p53 KO cells; test: apoptosis: PARP-1 and caspase-3 cleavage, RPE-1 p53 KO; format: cell-based, human; conditions: RPE-1 p53 KO cells depleted of FAN1, USP7, or both, MMC 1 μg/ml, 48 h
Method: If not stated otherwise, cells were lysed in RIPA buffer (50 mM Tris-HCl, pH 7.5, 150 mM NaCl, 1% IGEPAL, 0.5% sodium deoxycholate, 0.1% SDS) supplemented with phosphatase inhibitors (20 mM NaF and 1 mM Na3VO4) and protease inhibitors (1 mM benzamidine and 0.1 mM PMSF), incubated with Benzonase (Merck) for at least 30 min at 4 °C, and clarified by centrifugation. Proteins were resolved by SDS-PAGE and transferred to nitrocellulose membranes. Immunoblots were performed with the indicated antibodies, and proteins were visualized using the Advansta WesternBright ECL reagent and the Fusion Solo S imaging system. Relative protein levels were determined by quantification of the protein of interest band intensity normalized to the loading control with the ImageJ software. […]
the mean (dashed lines) are indicated. Representative images are shown (bottom). Scale bar: 10 μm.
This experiment was repeated three times. (B) QIBC analysis of chromatin-bound GFP-FAN1 foci in U2OSGFP-FAN1 cells were concurrently mock-treated (-) or treated (+) with MMC (150 ng/ml) and either FT671 (10 µM) or GNE-6640 (10 µM) for 24 h. […] 24 h later, cells were either mock-treated (-) or treated (+) with MMC (1 μg/ml) for 48 h and whole-cell lysates were analysed by immunoblotting. […]
Relative FAN1 protein levels were determined by quantification of FAN1 band intensity (normalized to GAPDH) with the ImageJ software. […]

[2] = system: FAN1-USP7; test: in situ proximity ligation assay (PLA), FAN1-USP7 association; format: cell-based, human; conditions: HeLa cells, MMC 150 ng/ml, 24 h
Method: HeLa parental and FAN1 KO cells were grown in the absence or presence of MMC (150 ng/ml) for 24 hours. Cells were pre-extracted with CSK buffer containing 0.5% of Triton™ X-100 (Sigma–Aldrich) for 5 min on ice and fixed in 4% formaldehyde in PBS (w/v) for 20 min at room temperature (RT). Coverslips were then washed with PBS and stored overnight at 4 °C. In situ PLA was performed using Duolink PLA technology (Sigma-Aldrich) according to the manufacturer’s instructions. In brief, coverslips were blocked for 30 min at 37 °C with blocking solution and then incubated with the respective primary antibodies for 2 h at 37 °C. Coverslips were washed three times for 5 min in Wash Buffer A (0.01 M Tris, 0.15 M NaCl, and 0.05% Tween 20). Then, Duolink anti-Mouse PLUS and anti-Rabbit MINUS PLA probes were coupled to the primary antibodies for 1 h at 37 °C. After three wash steps in Wash buffer A for 5 min, the PLA probes were ligated for 30 min at 37 °C. Coverslips were then washed three times for 5 min in Wash buffer A. Amplification using the “Duolink In Situ Detection Reagents FarRed” (Sigma-Aldrich) was performed at 37 °C for 100 min. […] Lastly, the coverslips were mounted using Vectashield Mounting Media (Vector Laboratories) containing DAPI, sealed and imaged on a Leica DMI 6000 fluorescence microscope at x63 magnification. […]

Structure (SMILES): CO[C@@]12[C@H](COC(N)=O)C3=C(C(=O)C(C)=C(N)C3=O)N1C[C@@H]1N[C@@H]12 [MMC, Mitomycin C]
- apoptosis (cleavage of PARP-1 and caspase-3) [1]: largely recapitulated
- PLA signals, FAN1-USP7 association [2]: significantly increased in numbers
